# Experiments:
# Assay type in all cases: in vivo
# [1] = test system: barnyardgrass (Echinochloa crus-galli); test: Test A preemergence
# Method in brief: (§1)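 Greenhouse, ~10 d after spray; visual injury vs untreated controls, 0 = no effect, 100 = complete control. Preemergence: directed soil spray over planted seeds. Postemergence: plants 2–10 cm, 1–2 leaf stage. Loam/sand blend. Compound in non-phytotoxic solvent with surfactant.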
# [2] = test system: ryegrass, Italian (Italian ryegrass, Lolium multiflorum); test: Test A preemergence
# Method in brief: as §1
# [3] = test system: giant foxtail (Setaria faberii); test: Test A preemergence
# Method in brief: as §1
# [4] = test system: pigweed (Amaranthus retroflexus); test: Test A preemergence
# [5] = test system: ragweed (common ragweed, Ambrosia elatior); test: Test A preemergence
# Method in brief: as §1
# Kochia (Kochia scoparia) [6] = test: Test A preemergence
# Method in brief: as §1
# [7] = test system: sedge, umbrella (small-flower umbrella sedge, Cyperus difformis); test: Test B flooded paddy test; settings: Flood, 0 to 100 scale where 0 is no effect and 100 is complete control, 13 to 15 d
# Method in brief: (§2)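 2-leaf plants; pots flooded 3 cm over soil; cpd added to paddy water; depth held; greenhouse 13–15 d; visual rating vs controls, 0 = no effect, 100 = complete control.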
# [8] = test system: barnyardgrass (Echinochloa crus-galli); test: Test B flooded paddy test; settings: Flood, 0 to 100 scale where 0 is no effect and 100 is complete control, 13 to 15 d
# Method in brief: as §2
# [9] = test system: ducksalad (Heteranthera limosa); test: Test B flooded paddy test; settings: Flood, 0 to 100 scale where 0 is no effect and 100 is complete control, 13 to 15 d
# Method in brief: as §2
# rice (Oryra sativa) = test: Test B flooded paddy test; settings: Flood, 0 to 100 scale where 0 is no effect and 100 is complete control, 13 to 15 d
# Method in brief: as §2
# corn (Zea mays) = test: Test A postemergence; settings: postemergence
# Method in brief: as §1
# [10] = test system: barnyardgrass (Echinochloa crus-galli); test: Test A postemergence; settings: postemergence
# Method in brief: as §1
# [11] = test system: blackgrass (Alopecurus myosuroides); test: Test A postemergence; settings: postemergence
# Method in brief: as §1
# [12] = test system: ryegrass, Italian (Italian ryegrass, Lolium multiflorum); test: Test A postemergence; settings: postemergence
# Method in brief: as §1
# [13] = test system: Galium (catchweed bedstraw, Galium aparine); test: Test A postemergence; settings: postemergence
# Method in brief: as §1
# [14] = test system: wheat (Triticum aestivum); test: Test A postemergence; settings: postemergence
# Method in brief: as §1
# [15] = test system: giant foxtail (Setaria faberii); test: Test A postemergence; settings: postemergence
# Method in brief: as §1
# [16] = test system: pigweed (Amaranthus retroflexus); test: Test A postemergence; settings: postemergence
# Method in brief: as §1
# [17] = test system: ragweed (common ragweed, Ambrosia elatior); test: Test A postemergence; settings: postemergence
# Method in brief: as §1
# Kochia (Kochia scoparia) [18] = test: Test A postemergence; settings: postemergence
# Method in brief: as §1
# [19] = test system: sedge, umbrella (small-flower umbrella sedge, Cyperus difformis); test: Test C flooded paddy test; settings: Flood; for Plant response rating (scale of 0 to 100), Sedge, Umbrella: 0 is no effect, 100 is complete control
# Source text: (§3) Plant species in the flooded paddy test consisted of rice (Oryza sativa), sedge, umbrella (small-flower umbrella sedge, Cyperus difformis), ducksalad (Heteranthera limosa), and barnyardgrass (Echinochloa crus-galli) grown to the 2-leaf stage for testing. At time of treatment, test pots were flooded to 3 cm above the soil surface, treated by application of test compounds directly to the paddy water, and then maintained at that water depth for the duration of the test. Treated plants and controls were maintained in a greenhouse for 13 to 15 d, after which time all species were compared to controls and visually evaluated. Plant response ratings, summarized in Table C, are based on a scale of 0 to 100 where 0 is no effect and 100 is complete control. A dash (-) response means no test result.
# [20] = test system: barnyardgrass (Echinochloa crus-galli); test: Test C flooded paddy test; settings: Flood; for Plant response rating (scale of 0 to 100), Barnyardgrass: 0 is no effect, 100 is complete control
# Source text: as §3
# rice (Oryza sativa) = test: Test C flooded paddy test; settings: Flood; for Plant response rating (scale of 0 to 100), Rice: 0 is no effect, 100 is complete control
# Source text: as §3
# [21] = test system: ducksalad (Heteranthera limosa); test: Test C flooded paddy test; settings: Flood; for Plant response rating (scale of 0 to 100), Ducksalad: 0 is no effect, 100 is complete control
# Source text: as §3
# [22] = 125 g ai/ha, Preemergence, visual injury after approximately 10 d, 0 to 100 scale where 0 is no effect and 100 is complete control
# [23] = 500 g ai/ha, preemergence, 0 to 100 scale, 0 = no effect, 100 = complete control
# [24] = 125 g ai/ha, visual rating after approx. 10 d, 0 to 100 scale (0 no effect, 100 complete control)
# [25] = 500 g ai/ha, visual injury, 0 to 100 scale (0 no effect, 100 complete control), approx. 10 d
# [26] = 31 g ai/ha, scale 0 to 100 (0 no effect, 100 complete control), 13 to 15 d
# [27] = 125 g ai/ha, preemergence, 0 to 100 scale (0 no effect, 100 complete control)
# [28] = Preemergence, 500 g ai/ha, visual injury approx. 10 d
# [29] = 125 g ai/ha, visual injury rating on 0 to 100 scale (0 no effect, 100 complete control), approx. 10 d
# [30] = 500 g ai/ha, 0 to 100 scale, 0 no effect, 100 complete control
structure (smiles),measurement,setting,value
CC(C)Oc1cccc(C2CN(C)C(=O)C2C(=O)Nc2ccccc2F)c1 (stereo not shown) [Compound 650],"Plant response rating, Barnyardgrass",[1]; [22],100
same,"Plant response rating, Barnyardgrass",[1]; [23],100
same,"Plant response rating, Ryegrass, Italian",[2]; [22],40
same,"Plant response rating, Ryegrass, Italian",[2]; [23],90
same,"Plant response rating, Foxtail, Giant",[3]; [22],100
same,"Plant response rating, Foxtail, Giant",[3]; [23],100
same,"Plant response rating, Pigweed",[4]; [22],50
same,"Plant response rating, Pigweed",[4]; [23],90
same,"Plant response rating, Ragweed",[5]; [22],0
same,"Plant response rating, Ragweed",[5]; [23],80
same,"Plant response rating, Kochia",Kochia (Kochia scoparia) [6]; [22],30
same,"Plant response rating, Kochia",Kochia (Kochia scoparia) [6]; [23],70
same,"Plant response rating, Sedge, Umbrella",[7]; 250 g ai/ha,0
same,"Plant response rating, Barnyardgrass",[8]; 250 g ai/ha,80
same,"Plant response rating, Ducksalad",[9]; 250 g ai/ha,100
same,"Plant response rating, Rice",rice (Oryra sativa); 250 g ai/ha,0
same,"Plant response rating, Corn",corn (Zea mays); [24],40
same,"Plant response rating, Corn",corn (Zea mays); [25],90
same,"Plant response rating, Barnyardgrass",[10]; [24],90
same,"Plant response rating, Barnyardgrass",[10]; [25],90
same,"Plant response rating, Blackgrass",[11]; [24],50
same,"Plant response rating, Blackgrass",[11]; [25],50
same,"Plant response rating, Ryegrass, Italian",[12]; [24],60
same,"Plant response rating, Ryegrass, Italian",[12]; [25],70
same,"Plant response rating, Galium",[13]; [24],50
same,"Plant response rating, Galium",[13]; [25],70
same,"Plant response rating, Wheat",[14]; [24],30
same,"Plant response rating, Wheat",[14]; [25],70
same,"Plant response rating, Foxtail, Giant",[15]; [24],90
same,"Plant response rating, Foxtail, Giant",[15]; [25],90
same,"Plant response rating, Pigweed",[16]; [24],0
same,"Plant response rating, Pigweed",[16]; [25],0
same,"Plant response rating, Ragweed",[17]; [24],0
same,"Plant response rating, Ragweed",[17]; [25],30
same,"Plant response rating, Kochia",Kochia (Kochia scoparia) [18]; [24],0
same,"Plant response rating, Kochia",Kochia (Kochia scoparia) [18]; [25],40
same,"Plant response rating, Sedge, Umbrella",[19]; [26],0
same,"Plant response rating (scale of 0 to 100), Sedge, Umbrella",[19]; 62 g ai/ha,0
same,"Plant response rating (scale of 0 to 100), Sedge, Umbrella",[19]; 125 g ai/ha,0
same,"Plant response rating (scale of 0 to 100), Sedge, Umbrella",[19]; 250 g ai/ha,0
same,"Plant response rating, Barnyardgrass",[20]; [26],20
same,"Plant response rating (scale of 0 to 100), Barnyardgrass",[20]; 62 g ai/ha,20
same,"Plant response rating (scale of 0 to 100), Barnyardgrass",[20]; 125 g ai/ha,60
same,"Plant response rating (scale of 0 to 100), Barnyardgrass",[20]; 250 g ai/ha,75
same,"Plant response rating, Rice",rice (Oryza sativa); [26],0
same,"Plant response rating (scale of 0 to 100), Rice",rice (Oryza sativa); 62 g ai/ha,0
same,"Plant response rating (scale of 0 to 100), Rice",rice (Oryza sativa); 125 g ai/ha,0
same,"Plant response rating (scale of 0 to 100), Rice",rice (Oryza sativa); 250 g ai/ha,0
same,"Plant response rating, Ducksalad",[21]; [26],60
same,"Plant response rating (scale of 0 to 100), Ducksalad",[21]; 62 g ai/ha,70
same,"Plant response rating (scale of 0 to 100), Ducksalad",[21]; 125 g ai/ha,90
same,"Plant response rating (scale of 0 to 100), Ducksalad",[21]; 250 g ai/ha,95
COc1c(F)ccc(NC(=O)C2C(=O)NCC2c2ccc(F)c(F)c2)c1F (stereo not shown) [Compound 419],"Plant response rating, Barnyardgrass",[1]; [27],60
same,"Barnyardgrass plant response rating (0 to 100 scale, 0 is no effect, 100 is complete control)",[1]; [28],90
same,"Plant response rating, Ryegrass, Italian",[2]; [27],0
same,"Ryegrass, Italian plant response rating (0 to 100 scale, 0 is no effect, 100 is complete control)",[2]; [28],0
same,"Plant response rating, Foxtail, Giant",[3]; [27],80
same,"Foxtail, Giant plant response rating (0 to 100 scale, 0 is no effect, 100 is complete control)",[3]; [28],90
same,"Plant response rating, Pigweed",[4]; [27],0
same,"Pigweed plant response rating (0 to 100 scale, 0 is no effect, 100 is complete control)",[4]; [28],20
same,"Plant response rating, Ragweed",[5]; [27],0
same,"Ragweed plant response rating (0 to 100 scale, 0 is no effect, 100 is complete control)",[5]; [28],0
same,"Plant response rating, Kochia",Kochia (Kochia scoparia) [6]; [27],0
same,"Kochia plant response rating (0 to 100 scale, 0 is no effect, 100 is complete control)",Kochia (Kochia scoparia) [6]; [28],0
same,"Plant response rating, Sedge, Umbrella",[7]; 500 g ai/ha,0
same,"Plant response rating, Barnyardgrass",[8]; 500 g ai/ha,40
same,"Plant response rating, Ducksalad",[9]; 500 g ai/ha,50
same,"Plant response rating, Rice",rice (Oryra sativa); 500 g ai/ha,0
same,Corn plant response rating,corn (Zea mays); [29],0
same,"Plant response rating, Corn",corn (Zea mays); [30],20
same,Barnyardgrass plant response rating,[10]; [29],60
same,"Plant response rating, Barnyardgrass",[10]; [30],80
same,Blackgrass plant response rating,[11]; [29],0
same,"Plant response rating, Blackgrass",[11]; [30],0
same,"Ryegrass, Italian plant response rating",[12]; [29],0
same,"Plant response rating, Ryegrass, Italian",[12]; [30],20
same,Galium plant response rating,[13]; [29],0
same,"Plant response rating, Galium",[13]; [30],0
same,Wheat plant response rating,[14]; [29],0
same,"Plant response rating, Wheat",[14]; [30],20
same,"Foxtail, Giant plant response rating",[15]; [29],20
same,"Plant response rating, Foxtail, Giant",[15]; [30],90
same,Pigweed plant response rating,[16]; [29],0
same,"Plant response rating, Pigweed",[16]; [30],0
same,Ragweed plant response rating,[17]; [29],0
same,"Plant response rating, Ragweed",[17]; [30],0
same,Kochia plant response rating,Kochia (Kochia scoparia) [18]; [29],20
same,"Plant response rating, Kochia",Kochia (Kochia scoparia) [18]; [30],20
